# Test results: publication PMC10518257 (Nature Cancer, 2023)
# Values joined by “and” are separate entries in the source; they are usually repeats but may differ in a detail not shown here. Identical values can stand only once.
# Columns and labels:
# [1] = biological target: T1, panel of 255 (vepafestinib) or 256 (all other inhibitors) recombinant kinases (Homo sapiens, UniProt O14757); assay: Kinase selectivity profiling at a single concentration (Carna Biosciences); type: biochemical; conditions: 23 nM
# T1 construct: purchased Carna Biosciences
# T1 sequence (O14757 whole entry): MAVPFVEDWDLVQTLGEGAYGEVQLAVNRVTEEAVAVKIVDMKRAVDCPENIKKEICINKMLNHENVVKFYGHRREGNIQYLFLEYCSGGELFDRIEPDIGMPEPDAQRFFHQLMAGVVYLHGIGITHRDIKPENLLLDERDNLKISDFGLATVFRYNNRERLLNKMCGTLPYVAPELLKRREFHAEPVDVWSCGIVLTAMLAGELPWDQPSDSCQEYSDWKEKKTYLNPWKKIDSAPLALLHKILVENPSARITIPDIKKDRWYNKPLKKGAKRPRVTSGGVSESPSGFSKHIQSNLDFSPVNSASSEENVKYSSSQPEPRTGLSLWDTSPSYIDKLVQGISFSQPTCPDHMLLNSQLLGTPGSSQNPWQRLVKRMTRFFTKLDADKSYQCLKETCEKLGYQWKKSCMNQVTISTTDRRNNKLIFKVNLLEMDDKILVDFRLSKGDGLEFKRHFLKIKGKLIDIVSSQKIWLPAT
# [2] = biological target: T2, panel of 255 (vepafestinib) or 256 (all other inhibitors) recombinant kinases (Homo sapiens, UniProt P35968); assay: as above; type: biochemical; conditions: 23 nM
# T2 construct: purchased Carna Biosciences
# T2 sequence (P35968 20-1356): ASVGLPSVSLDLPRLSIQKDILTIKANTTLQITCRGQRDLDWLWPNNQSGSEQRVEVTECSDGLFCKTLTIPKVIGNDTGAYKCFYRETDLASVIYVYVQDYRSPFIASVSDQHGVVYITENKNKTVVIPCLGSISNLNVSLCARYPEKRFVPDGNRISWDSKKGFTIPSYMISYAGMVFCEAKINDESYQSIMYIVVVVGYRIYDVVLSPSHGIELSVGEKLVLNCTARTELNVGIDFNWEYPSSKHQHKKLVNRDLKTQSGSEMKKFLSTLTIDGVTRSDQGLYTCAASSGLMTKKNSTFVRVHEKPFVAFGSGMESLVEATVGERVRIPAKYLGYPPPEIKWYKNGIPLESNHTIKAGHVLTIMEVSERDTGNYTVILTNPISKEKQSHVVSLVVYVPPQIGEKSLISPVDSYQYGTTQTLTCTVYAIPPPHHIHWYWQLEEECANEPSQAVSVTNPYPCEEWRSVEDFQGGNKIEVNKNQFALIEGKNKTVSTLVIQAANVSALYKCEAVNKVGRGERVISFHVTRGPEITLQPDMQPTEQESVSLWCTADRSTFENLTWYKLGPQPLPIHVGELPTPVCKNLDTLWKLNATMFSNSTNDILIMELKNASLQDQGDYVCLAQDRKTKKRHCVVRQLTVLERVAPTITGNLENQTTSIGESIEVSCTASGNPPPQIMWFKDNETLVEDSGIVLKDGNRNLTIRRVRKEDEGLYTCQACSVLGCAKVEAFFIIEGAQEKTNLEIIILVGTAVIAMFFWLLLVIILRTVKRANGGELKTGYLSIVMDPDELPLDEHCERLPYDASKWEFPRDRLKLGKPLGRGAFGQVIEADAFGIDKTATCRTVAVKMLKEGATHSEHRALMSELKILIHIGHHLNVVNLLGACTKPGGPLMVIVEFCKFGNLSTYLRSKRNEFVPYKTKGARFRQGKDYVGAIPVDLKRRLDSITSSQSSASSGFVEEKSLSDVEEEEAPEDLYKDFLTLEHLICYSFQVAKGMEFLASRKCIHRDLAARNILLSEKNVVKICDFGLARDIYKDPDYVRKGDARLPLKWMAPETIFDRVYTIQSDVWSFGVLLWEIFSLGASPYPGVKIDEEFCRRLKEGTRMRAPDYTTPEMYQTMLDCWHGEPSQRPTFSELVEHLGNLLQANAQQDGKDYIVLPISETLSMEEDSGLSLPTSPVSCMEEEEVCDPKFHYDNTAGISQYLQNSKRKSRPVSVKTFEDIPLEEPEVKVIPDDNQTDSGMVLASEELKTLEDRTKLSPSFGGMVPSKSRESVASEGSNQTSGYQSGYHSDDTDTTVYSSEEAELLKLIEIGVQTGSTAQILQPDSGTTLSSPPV
# [3] = biological target: T3, panel of 255 (vepafestinib) or 256 (all other inhibitors) recombinant kinases (Homo sapiens, UniProt Q06418); assay: as above; type: biochemical; conditions: 23 nM
# T3 construct: purchased Carna Biosciences
# T3 sequence (Q06418 41-890): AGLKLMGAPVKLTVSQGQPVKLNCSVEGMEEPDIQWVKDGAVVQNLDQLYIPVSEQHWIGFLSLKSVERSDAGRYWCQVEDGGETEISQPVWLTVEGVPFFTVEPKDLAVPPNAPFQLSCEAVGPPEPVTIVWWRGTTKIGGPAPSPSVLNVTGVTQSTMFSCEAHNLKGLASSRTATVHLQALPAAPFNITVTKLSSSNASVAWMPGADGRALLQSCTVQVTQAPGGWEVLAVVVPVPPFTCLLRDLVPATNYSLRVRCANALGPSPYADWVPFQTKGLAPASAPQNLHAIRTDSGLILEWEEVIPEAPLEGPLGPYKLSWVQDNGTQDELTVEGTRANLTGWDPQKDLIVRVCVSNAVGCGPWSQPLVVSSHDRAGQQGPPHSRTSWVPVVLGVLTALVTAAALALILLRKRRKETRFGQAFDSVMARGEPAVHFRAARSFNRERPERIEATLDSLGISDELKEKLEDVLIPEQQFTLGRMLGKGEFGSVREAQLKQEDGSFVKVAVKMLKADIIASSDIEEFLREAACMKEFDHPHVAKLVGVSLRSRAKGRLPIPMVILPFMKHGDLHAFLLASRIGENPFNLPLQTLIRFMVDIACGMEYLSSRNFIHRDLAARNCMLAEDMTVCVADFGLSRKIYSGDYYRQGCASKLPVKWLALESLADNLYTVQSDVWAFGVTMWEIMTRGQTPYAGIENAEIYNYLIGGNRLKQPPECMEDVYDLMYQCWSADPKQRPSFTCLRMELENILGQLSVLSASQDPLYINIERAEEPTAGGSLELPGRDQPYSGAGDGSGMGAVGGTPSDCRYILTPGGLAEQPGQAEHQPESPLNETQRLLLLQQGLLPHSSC
# [4] = biological target: T4, panel of 255 (vepafestinib) or 256 (all other inhibitors) recombinant kinases (Homo sapiens, UniProt Q15375); assay: as above; type: biochemical; conditions: 23 nM
# T4 construct: purchased Carna Biosciences
# T4 sequence (Q15375 28-998): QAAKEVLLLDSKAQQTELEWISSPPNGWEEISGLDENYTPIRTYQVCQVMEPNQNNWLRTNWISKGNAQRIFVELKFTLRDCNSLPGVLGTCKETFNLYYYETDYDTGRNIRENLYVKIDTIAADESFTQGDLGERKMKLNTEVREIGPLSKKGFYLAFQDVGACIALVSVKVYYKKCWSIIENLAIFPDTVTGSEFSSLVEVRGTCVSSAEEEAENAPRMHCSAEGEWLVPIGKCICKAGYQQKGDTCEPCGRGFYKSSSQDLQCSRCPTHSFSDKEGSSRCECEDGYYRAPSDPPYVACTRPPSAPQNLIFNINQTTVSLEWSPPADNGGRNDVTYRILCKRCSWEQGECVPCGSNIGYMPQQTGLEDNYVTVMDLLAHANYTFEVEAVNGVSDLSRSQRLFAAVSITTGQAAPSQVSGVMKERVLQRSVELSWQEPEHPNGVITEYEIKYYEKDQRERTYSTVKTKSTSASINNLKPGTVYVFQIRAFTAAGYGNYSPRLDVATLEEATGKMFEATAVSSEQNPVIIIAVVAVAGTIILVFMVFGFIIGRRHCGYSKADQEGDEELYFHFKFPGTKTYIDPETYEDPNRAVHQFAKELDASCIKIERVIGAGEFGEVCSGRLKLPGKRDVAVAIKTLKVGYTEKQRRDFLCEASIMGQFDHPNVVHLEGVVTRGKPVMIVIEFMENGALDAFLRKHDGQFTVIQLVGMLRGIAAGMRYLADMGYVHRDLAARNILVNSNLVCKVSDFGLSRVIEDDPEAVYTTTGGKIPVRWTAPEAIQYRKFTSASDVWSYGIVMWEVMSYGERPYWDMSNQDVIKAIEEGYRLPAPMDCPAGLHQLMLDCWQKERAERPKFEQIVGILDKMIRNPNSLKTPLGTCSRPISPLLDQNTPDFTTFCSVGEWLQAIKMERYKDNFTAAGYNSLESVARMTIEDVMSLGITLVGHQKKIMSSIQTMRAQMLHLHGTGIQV
# [5] = biological target: T5, KDR (Homo sapiens, UniProt P35968); assay: Dose-response IC50 on off-target kinases; type: biochemical
# T5 construct: purchased Carna Biosciences
# T5 sequence (P35968 20-1356): as the sequence (P35968 20-1356) above
# [6] = tested on: HBECp53-RET cells (CCDC6-RET fusion); assay: Growth inhibition (alamarBlue, 96 h); type: cell-based, human; conditions: for raw viability signal (Source Data Fig. 3b-c): HBEC-RET, replicate sets
# [7] = tested on: LC-2/ad cells; assay: Growth inhibition (alamarBlue, 96 h); type: cell-based, human; conditions: for raw viability signal (Source Data Fig. 3b-c): LC-2/Ad, replicate sets
# [8] = tested on: phospho-RET and phospho-ERK in Ba/F3 KIF5B–RET^WT tumors; assay: Western blotting of tumors after a single dose (target engagement); type: in vivo, mice; conditions: single dose 50 mg per kg
# [9] = tested on: NIH-3T3 CCDC6-RET luciferase cells implanted intracranially; assay: Intracranial efficacy study; type: in vivo, nude mice; conditions: 50 mg per kg BID from day 5 after implantation
# [10] = in vivo; conditions: male, BALB/c, mouse, in vivo, po, 50 mg/kg
# [11] = tested on: LUAD-0057AS1 PDX; assay: PDX efficacy study; conditions: for Change in Tumor Volume: end of study, individual tumors
# [12] = tested on: NIH-3T3-CCDC6::RET xenografts; assay: Subcutaneous xenograft efficacy study; conditions: 25 mg/kg BID
structure (smiles),measurement,setting,value
"COCc1ccc(NC(=O)c2c(C#CCN3CCOCC3)n(C3(C)CC3)c3ncnc(N)c23)cc1 [Vepafestinib, 4-amino-N-[4-(methoxymethyl)phenyl]-7-(1-methylcyclopropyl)-6-[3-(morpholin-4-yl)prop-1-yn-1-yl]-7H-pyrrolo[2,3-d]pyrimidine-5-carboxamide]",% Inhibiton CHK1,[1],11.9%
same,% Inhibiton KDR,[2],36%
same,% Inhibiton TYRO3,[3],8.6%
same,% Inhibiton EPHA7,[4],10.4%
same,IC50,[5],0.172 µM
same,raw viability signal (Source Data Fig. 3b-c),[6]; 0.01 nM,18957.1 and 8244.84 and 10678.9 and 16541.7
same,raw viability signal (Source Data Fig. 3b-c),[6]; 0.1 nM,17482 and 10966 and 10873.4 and 16651.3
same,raw viability signal (Source Data Fig. 3b-c),[6]; 1 nM,17298.8 and 10767.5 and 11130.6 and 16468.7
same,raw viability signal (Source Data Fig. 3b-c),[6]; 10 nM,5536.96 and 10230.4 and 9156.41 and 16208.5
same,raw viability signal (Source Data Fig. 3b-c),[6]; 100 nM,4544.29 and 6087.71 and 3084.29 and 6640.5
same,raw viability signal (Source Data Fig. 3b-c),[6]; 1000 nM,2966.02 and 1973.98 and 3130.94 and 5863.55
same,raw viability signal (Source Data Fig. 3b-c),[6]; 10000 nM,3124.48 and 1006.63 and 1869.57 and 4627.96
same,IC50,"[6]; Homo sapiens, 96 h, read-out: IC50 for Inhibition of Growth (95% CI), HBECp53-RET, alamarBlue, 96 h",0.065 µM
same,IC50,"[7]; Homo sapiens, LC-2-ad, 96 h, read-out: IC50 for Inhibition of Growth (95% CI)",0.015 µM
same,raw viability signal (Source Data Fig. 3b-c),[7]; 0.01 nM,13380.1 and 23532.8
same,raw viability signal (Source Data Fig. 3b-c),[7]; 0.1 nM,13890.3 and 20497.1
same,raw viability signal (Source Data Fig. 3b-c),[7]; 1 nM,12571.5 and 21458.9
same,raw viability signal (Source Data Fig. 3b-c),[7]; 10 nM,6299.39 and 16710
same,raw viability signal (Source Data Fig. 3b-c),[7]; 100 nM,4794.24 and 3373.89
same,raw viability signal (Source Data Fig. 3b-c),[7]; 1000 nM,5340.72 and 2243.82
same,raw viability signal (Source Data Fig. 3b-c),[7]; 10000 nM,3810.66 and 1837.55
same,duration of complete inhibition of phospho-RET and phospho-ERK in tumors,[8],at least 8 h
same,median survival,[9],52 days
same,Kp,[10],1.8
same,Kp uu,[10],1.3
same,tumor shrinkage,[11]; 50 mg per kg BID,44% ± 3%
same,"Area Under Curve of tumor growth, Mean",[11]; 50 mg/kg BID,-1274
same,Tumor volume,"[11]; 50 mg/kg BID, day 0, individual animals",141.55 mm3 and 150.43 mm3 (2×) and 137.16 mm3 and 152.81 mm3 and 132.84 mm3 and 139.24 mm3 and 143.69 mm3
same,Tumor volume,"[11]; 50 mg/kg BID, day 3, individual animals",107.44 mm3 and 102.07 mm3 (2×) and 103.92 mm3 and 105.68 mm3 (2×) and 109.36 mm3 and 109.21 mm3
same,Tumor volume,"[11]; 50 mg/kg BID, day 7, individual animals",86.78 mm3 and 84.95 mm3 (2×) and 83.53 mm3 and 93.45 mm3 and 76.27 mm3 and 91.61 mm3 and 79.29 mm3
same,Tumor volume,"[11]; 50 mg/kg BID, day 10, individual animals",71.99 mm3 and 84.95 mm3 and 77.63 mm3 and 80.7 mm3 (2×) and 69.38 mm3 and 74.9 mm3 and 72.18 mm3
same,Tumor volume,"[11]; 50 mg/kg BID, day 14, individual animals",89.72 mm3 and 88.25 mm3 (2×) and 78.99 mm3 and 76.27 mm3 and 80.7 mm3 and 72.18 mm3
same,Tumor volume,"[11]; 50 mg/kg BID, day 19, individual animals",80.35 mm3 and 77.63 mm3 and 73.3 mm3 (2×) and 71.99 mm3 and 88.25 mm3 and 72.18 mm3
same,Tumor volume,"[11]; 50 mg/kg BID, day 23, individual animals",80.35 mm3 and 82.12 mm3 and 74.61 mm3 and 73.3 mm3 and 71.99 mm3 and 109.29 mm3
same,Change in Tumor Volume,[11]; 50 mg/kg BID,-49.1416% and -46.5865% and -45.4098% and -45.6037% and -52.0319% and -45.807% and -21.5096% and -48.8204%
same,tumor shrinkage,[11]; 100 mg per kg QD,48% ± 1%
same,"Area Under Curve of tumor growth, Mean",[11]; 100 mg/kg QD,-1469
same,Tumor volume,"[11]; 100 mg/kg QD, day 0, individual animals",145.84 mm3 (3×) and 143.69 mm3 and 141.32 mm3 and 152.81 mm3 and 139.24 mm3 and 148.22 mm3
same,Tumor volume,"[11]; 100 mg/kg QD, day 3, individual animals",79.29 mm3 and 83.83 mm3 and 80.7 mm3 (2×) and 91.87 mm3 (3×) and 95.24 mm3
same,Tumor volume,"[11]; 100 mg/kg QD, day 7, individual animals",71.99 mm3 and 77.87 mm3 and 69.14 mm3 and 72.18 mm3 and 69.38 mm3 and 74.61 mm3 and 80.7 mm3 and 70.69 mm3
same,Tumor volume,"[11]; 100 mg/kg QD, day 10, individual animals",71.99 mm3 and 80.89 mm3 and 66.35 mm3 and 72.18 mm3 and 69.38 mm3 and 74.61 mm3 and 77.87 mm3 and 70.69 mm3
same,Tumor volume,"[11]; 100 mg/kg QD, day 14, individual animals",77.63 mm3 (2×) and 83.83 mm3 and 74.61 mm3 (2×) and 69.38 mm3 and 87.03 mm3 and 75.92 mm3
same,Tumor volume,"[11]; 100 mg/kg QD, day 19, individual animals",68.09 mm3 and 80.7 mm3 and 73.3 mm3 (2×) and 77.63 mm3 and 74.61 mm3 (2×) and 78.99 mm3
same,Change in Tumor Volume,[11]; 100 mg/kg QD,-49.7394% and -48.9874% and -48.1319% and -52.0319% and -45.2241% and -47.703% and -43.6917% and -45.79%
same,"Area Under Curve of tumor growth, Mean",[12],1601
same,Tumor volume,"[12]; day 0, individual animals",93.59 mm3 (2×) and 90.28 mm3 (3×)
